One series concerns GLUT1 transporters. To be noted: cited from earlier work.
Series [1] can be described thus: In vivo toxicity by body weight and general behavior. Further details: species or system Balb/c mice. To be noted: 5 mg/kg, 4X in 8 days.
Series [2] deals with GLUT1 expressing breast cancer (G1fpt). Nature of the series: In vivo antitumor efficacy, GLUT1 expressing breast cancer syngeneic model. The note with it: 5 mg/kg i.v. bolus, four treatments once every other day, 30 days. On the set-up: species or system Balb/c mice.

Regarding `O=[N+]([O-])c1ccc(NCC2OC(O)C(O)C(O)[C@@H]2O)c2nonc12` (stereo partly shown) [6-NBDG], the “affinity for GLUT1 transporters relative to D-glucose” value in the series on GLUT1 transporters is 300 fold.
For `O=C1[O][Pt]2([NH][C@@H]3CCCC[C@H]3[NH]2)[O]C1=O` [oxaliplatin], in series [1], the body weight entry is on record as “reduced after the second dose but recovered to normal values”. In series [2], the “antitumor efficacy (tumor volume)” value is “no statistically significant difference compared to the Glc-Pt 2 treated group” and the “tumors smaller compared to tumors in the PBS treated control group” value worked out at 10 times.

The record behind these values is PMC5042873 (Journal of the American Chemical Society, 2016).
